The record followed here is US20240415787A1, “COMPOSITION FOR TREATING OR PREVENTING OBESITY OR OBESITY-ASSOCIATED LIVER DISEASE, COMPRISING VERBENONE DERIVATIVES” (SHIN POONG PHARMACEUTICAL CO., LTD., priority 2021, published 2024).

Data set [1] can be described thus: Solubility in saline / water. In kind it is physicochemical.
Data set [2] can be described thus: Efficacy of suspension versus soluble prodrug form. The conditions noted are these: suspension in saline.
Data set [3] relates to VAT inflammation. Kind of data set: 18F-FDG PET/CT imaging of VAT metabolic activity (SUVmax). The data set is classed as in vivo, mice. The text has this: (§1) Male C57BL/6 mice (6 weeks old, 20 g body weight) were purchased from Orient-Bio (Seongnam, Korea). All mice were maintained in a 12-hr light/dark cycle and fed ad libitum. To minimize environmental differences, mice were allowed 2 weeks for acclimation before the start of experiments. For diet-induced NAFLD experiments, mice were fed either an HFD (60% of kcal in fat, D12492, Research Diets, NJ, USA) or a normal chow diet (ND) for 20 weeks. All experimental protocols and procedures were approved by the Ethics Committee and the Institutional Animal Care and Use Committee of Korea University College of Medicine (Approval No. KOREA-2019-0026).
The mice were subdivided into vehicle and SP-1154 (50 mg/kg as SP-8356) groups. SP-1154 was administrated to the mice via tab water and the dose of drug was determined by daily water consumption (6 mL/day) and body weights, which were measured every week. […]
Images were analyzed by two experienced nuclear medicine physicians (KP and HWK) using commercially available software (Syngo. via, Siemens Healthcare, Erlangen, Germany). […] For the evaluation of VAT metabolic activity, region on interest (ROI) was placed along the intra-abdominal fat on each slice and the maximum standardized uptake value (SUVmax) was measured, as previously described. […]

The subject of data set [4] is HFD-induced liver steatosis. Description: Liver weight and liver steatosis score of harvested liver. In kind it is in vivo, mice. The conditions noted are these: vs HFD.
Source text: as §1
(§2) The mice were subdivided into vehicle and SP-1154 (50 mg/kg as SP-8356) groups. SP-1154 was administrated to the mice via tab water and the dose of drug was determined by daily water consumption (6 mL/day) and body weights, which were measured every week.
(§3) Mice were sacrificed after 20 weeks of drug administration by using the CO2 chamber. […] Adipocyte surface area of a minimum of 300 cells per group was measured using ImageJ software (version 1.45 s, Bethesda, MD, USA), as previously described. Hepatic steatosis was assessed using three-scale scoring system based on H&E-stained liver: score 1 (mild, 5-33%); score 2 (moderate, 34-66%); score 3 (severe, >66%). […]

For data set [5], the system named is CD68. Kind of data set: CD68 immunohistochemistry of VAT. In kind it is in vivo, mice. As to conditions: IHC on harvested VAT; vs HFD.
Source text: as §1, §2, §3

The subject of data set [6] is GLUT4. Kind of data set: GLUT4 expression in VAT (immunostaining, qRT-PCR). In kind it is in vivo, mice. The conditions noted are these: 20 weeks of HFD, vs HFD.
Source text: as §1, §2
(§4) Tissues were incubated with anti-CD68 (ab 125212, Abcam, Cambridge, MA, USA), anti-glucose transporter 1 (GLUT1) (ab652, Abcam, Cambridge, MA, USA), and anti-GLUT4 (ab654, Abcam, MA, USA). Alexa Fluor 594 (Invitrogen, Carlsbad, CA, USA) was used as secondary antibody. All fluorescence images were acquired with Zeiss Axio Scan.Z1 (Carl Zeiss, Jena, Germany). […]
For orientation: Real-time PCR tracks product formation cycle by cycle.

Data set [7] can be described thus: Blood analysis (serum AST, ALT, total cholesterol). The data set is classed as in vivo, mice.
Source text: as §1, §2
Blood samples were collected immediately before sacrifice. The levels of AST (aspartate aminotransferase), ALT (alanine aminotransferase), total cholesterol, and triglyceride in serum were measured using a FUJI DRI-Chemiclinical Chemistry Analyzer (FUJI DRI-CHEM 4000i, Fuji Film, Tokyo, Japan).

In data set [8] the test system is HFD-induced liver steatosis. Kind of data set: CT measurement of liver density (Hounsfield units). In kind it is in vivo, mice. As to conditions: measured in HU, vs HFD.
Source text: as §1, §2
^18F-FDG PET/CT was performed using a dedicated small animal PET/CT scanner (eXplore Vista DR PET/CT, GE Healthcare, Milwaukee, WI, USA). Mice were not fasted before taking examination and anesthetized with 2% isoflurane in oxygen (1 L/min) during the examination. PET/CT image acquisition was started 40 min after the injection of 18.5 MBq/0.1 mL of ^18F-FDG via the tail vein. Static PET images were acquired for 20 min, followed by CT scan (40 kV, 250 uA). […]

The subject of data set [9] is adipocytes in VAT. Kind of data set: Histopathology of VAT: adipocyte surface area. The data set is classed as in vivo, mice. As to conditions: 20 weeks of HFD, vs HFD.
Source text: as §1, §2, §3

Data set [10] is described as follows: Glucose tolerance test (GTT). The data set is classed as in vivo. As to conditions: HFD-induced mice; vs HFD.
Source text: as §1, §2
(§5) For GTT, glucose (2 g/kg body weight) was orally administered to mice after overnight fasting, and blood was drawn to measure glucose concentrations at indicated times thereafter. For ITT, insulin (1.5 insulin units/kg body weight) was intraperitoneally injected into mice after fasting for 4 hours, and blood was drawn to measure blood glucose at indicated times. Insulin concentrations were measured at each indicated time in serum collected from the mice subjected to GTT.

Data set [11] relates to C-reactive protein (CRP). Kind of data set: ELISA of serum C-reactive protein. In kind it is in vivo, mice.
Source text: as §1, §2
Serum concentration of C-reactive protein (CRP) was determined using a commercially available ELISA kit (ab157712, Abcam, Cambridge, MA, USA) according to the manufacturer's instruction.
For orientation: An ELISA detects its analyte on a solid surface through an enzyme-linked reagent.

The test system of data set [12] is phosphorylation of Smad2/3. Description: Western blot of Smad2/3 phosphorylation in VAT of HFD-induced mice. In kind it is in vivo. The conditions noted are these: 50 mg/kg as SP-8356 via water, 20 weeks, vs HFD.
Source text: as §1, §2
VAT was lysed in RIPA buffer (Thermo Fisher Scientific, Waltham, MA, USA) with protease inhibitor (GeneDepot, Barker, TX, USA). The protein concentration was quantified using the BCA protein assay kit (Thermo Fisher Scientific, Waltham, MA, USA). […] Protein bands were detected using the ECL assay kit (GE Healthcare, Chicago, IL, USA).
(Immunoblotting shows a protein as a band on a membrane.)

Data set [13] is described as follows: Body weight and food intake during 20-week HFD study. The data set is classed as in vivo. The conditions noted are these: HFD-induced mice, 50 mg/kg as SP-8356, 20 weeks; vs HFD.
Source text: as §1, §2

Data set [14] in a line: Conversion of prodrug to SP-8356.
Data set [15] can be described thus: Insulin tolerance test (ITT). The conditions noted are these: HFD-induced mice; vs HFD. In kind it is in vivo.
Source text: as §1, §2, §5

The test system of data set [16] is macrophage infiltration into VAT. Kind of data set: Flow cytometry of F4/80+CD11b+ macrophages in VAT. In kind it is in vivo, mice. The conditions noted are these: vs HFD.
Source text: as §1, §2
Cells were suspended in 0.1 mL of fluorescence-activated cell sorting (FACS) buffer (phosphate-buffered saline; PBS with 5% fetal bovine serum; FBS) and incubated with Fc blocker (BD Bioscience, San Jose, CA, USA) at room temperature for 10 min, followed by an additional 30 min with anti-CD45 APC-Cy7, anti-F4/80 PE, and anti-CD11b-PerCP-Cy5.5 (Biolegend, San Diego, CA, USA) antibodies according to the manufacturer's recommendation. […]

Data set [17] has as its system TGF-βR1. Description: qRT-PCR of TGF-βR1 mRNA in VAT of HFD-induced mice. The data set is classed as in vivo. The conditions noted are these: HFD vs HFD with SP-1154, 20 weeks.
Source text: as §1, §2
(§6) Total RNA was extracted from VAT samples using the Trizol reagent (Invitrogen, Carlsbad, CA, USA) and the generation of cDNA was performed using the reverse transcription reaction kit (iScript cDNA synthesis kit, Bio-Rad, Hercules, CA, USA). Gene expression was assessed using SYBR Green mixture (iQTM SYBR Green Supermix, Bio-Rad, Hercules, CA, USA) and an iCycler PCR thermocycler (Bio-Rad, Hercules, CA, USA). […]

Data set [18] has as its system GLUT1. Description: GLUT1 expression in VAT (immunostaining, qRT-PCR). The data set is classed as in vivo, mice. As to conditions: 20 weeks of HFD, vs HFD.
Source text: as §1, §2, §4

The subject of data set [19] is TGF-β1. Description: qRT-PCR of TGF-β1 mRNA in VAT of HFD-induced mice. The conditions noted are these: HFD vs HFD with SP-1154, 20 weeks. In kind it is in vivo.
Source text: as §1, §2, §6

Setting [20] is: normal mice vs SP-1154-treated mice.

For `COc1cc(C=CC2=CC(=O)[C@H]3C[C@@H]2C3(C)C)cc(O)c1O` [SP-8356, (1S,5R)-4-(3,4-dihydroxy-5-methoxystyryl)-6,6-dimethylbicyclo[3.1.1]hept-3-en-2-one], the solubility in saline result in [1] (saline) is reported as “does not dissolve well in saline”. The “efficacy when used as a suspension” value in [2] was “weak but significant”.
As to `COc1cc(/C=C/C2=CC(=O)[C@H]3C[C@@H]2C3(C)C)cc(OC(=O)[C@@H](N)C(C)C)c1OC(=O)[C@@H](N)C(C)C.Cl.Cl` [SP-1154, (2S,2'S)-5-((E)-2-((1R,5S)-6,6-dimethyl-4-oxobicyclo[3.1.1]hept-2-en-2-yl)vinyl)-3-methoxy-1,2-phenylene bis(2-amino-3-methylbutanoate)-dihydrochloride], the “VAT SUVmax” value in data set [3] (18F-FDG PET/CT after 20 weeks of HFD, vs HFD) is on record as “significantly reduced”. In data set [3] (setting [20]), the “VAT SUVmax, difference to normal mice” value is on record as “no significant difference”. Also, in data set [1] (water), the water solubility entry is recorded as “high”. In data set [4] (H&E-stained liver, three-scale scoring), the liver steatosis score result was “significantly reduced”. In addition, the liver weight result in data set [4] (harvested liver) was “significantly reduced”. For the same compound, the “expression of CD68 in VAT” value in data set [5] is given as “suppressed”. Also, the GLUT4 expression result in [6] is listed as “increased”. The serum total cholesterol result in data set [7] (HFD vs HFD with SP-1154) is “no significant difference”. Besides, in [7] (serum, HFD-induced mice), the “level of ALT” value is “improved” and the “level of AST” value is listed as “improved”. Also, the liver density result in data set [8] is given as “significantly enhanced”. The adipocyte size result in data set [9] is given as “significant reduction”. Besides, the “glucose homeostasis (GTT)” value in data set [10] is reported as “significantly improved”. Besides, in [11] (setting [20]), the “CRP levels, difference to normal mice” value was “no significant difference”. The “levels of CRP” value in data set [11] (serum, HFD-induced mice, vs HFD) is “significantly suppressed”. The “phosphorylation of Smad2/3 in VAT” value in data set [12] was “inhibited”. Also, the “HFD-induced body weight gain” value in [13] was “significantly attenuated”. Moreover, the “conversion of prodrug to SP-8356” value in data set [14] is recorded as “converted to SP-8356 very quickly”. Besides, in data set [15], the “insulin resistance (ITT)” value is “significantly improved”. For the same compound, in data set [16], the “macrophage infiltration into VAT” value was “significantly prevented”. Besides, in [17], the “mRNA expression level of TGF-βR1 in VAT” value was “no significant difference”. Further, the GLUT1 expression result in data set [18] is listed as “decreased”. In addition, the “mRNA expression level of TGF-β1 in VAT” value in data set [19] is on record as “no significant difference”.
